Test results reported in patent US20150306107A1, “SAA Derivative Compound Restores eNOS And Inhibits Oxidative Stress-Induced A Diseases In Hypoxia” (JANSFAT BIOTECHNOLOGY CO., LTD., priority 2014, published 2015).

Key:
eNOS [1] = test: Western blotting of eNOS expression in rat carvenosus strip, acute hypoxia; assay type: cell-based; parameters: unit not given here
VEGF [2] = test: Western blotting of VEGF expression in isolated rat pulmonary artery ring, short-term (acute) hypoxia; assay type: cell-based
Procedure: (§1) In our in vitro short-term experiment, isolated rat pulmonary artery was grown under normoxia (20% O2) or hypoxia (1% O2) at 37° C. for 24 hrs as was previously done (Wu BN, et al. Int J Immunopathol Pharmacol 24:925, 2011). The heart weight and body weight ratio (HW/BW) of the rats treated with one of SPAAX-1, SPAAX-1 RX complex, Sildenafil or Sildenafil RX complex each measured on the 21st hypoxic day. All animal care and the experimental protocols of this study were approved by the Animal Care and Use Committee of the Kaohsiung Medical University. Male Wistar rats (200-250 g), provided by the National Laboratory Animal Breeding and Research Center (Taipei, Taiwan), were housed under constant temperature and controlled illumination. Food and water were available ad libitum.
(§2) Whole right lung tissues of hypoxia-treated and untreated rats were isolated and cut into small strips and placed into an extraction buffer (Tris 10 mM, pH 7.0, NaCl 140 mM, PMSF 2 mM, DTT 5 mM, NP-40 0.5%, pepstatin A 0.05 mM and leupeptin 0.2 mM) for protein extraction, and then centrifuged at 12,500 g for 30 min. To measure the expression levels of the proteins, the total proteins were extracted and Western blotting analysis was performed as described previously (Bivalacqua T J, et al., 2013, TJ PLoSONE 8: e68028. doi:10.1371/journal. pone.0068028). Briefly, the protein extract was boiled to a ratio of 4:1 with a sample buffer (Tris 100 mM, pH 6.8, glycerol 20%, SDS 4% and bromophenol blue 0.2%). Electrophoresis was performed using 10% SDS-polyacrylamide gel (2 hr, 100 V, 40 mA, […] protein per lane). Separated proteins were transferred to PVDF membranes treated with 5% fat-free milk powder to block the nonspecific IgGs (90 min, 100 V) and incubated for one hour with a specific protein antibody. The blot was then incubated with anti-mouse or anti-goat IgG linked to alkaline phosphatase (1:1000) for 1 hr. Immunoreactive bands were visualized using horseradish peroxidase-conjugated secondary antibodies and subsequent electrochemiluminescence (ECL) detection (GE Healthcare Bio-Sciences Corp., Piscataway, N.J., U.S.A.). Mouse or rabbit monoclonal antibody of eNOS (Upstate, N.Y., U.S.A.), sGCα (Sigma-Adrich, CA, U.S.A., sGCβ (Santa Cruz, Calif., U.S.A.), PDE-5A (BD Tansduction, San Jose, Calif., U.S.A.), PKG (Calbiochem, San Diego, Calif., U.S.A.) ROCKII (Upstate, N.Y., U.S.A.), RhoA (Santa Cruze, Calif., U.S.A.) and the loading control protein β-actin (Sigma-Adrich, MO, U.S.A.) were used in our Western blot analysis.
(§3) The Western blotting analysis measurements were performed as per lung tissue.

ROCK II [3] = test: Western blotting of ROCK II expression in isolated rat pulmonary artery ring, short-term (acute) hypoxia or normoxia; assay type: cell-based; conditions: for ROCK II expression, Pulmonary Artery Ring: acute hypoxia, Normoxia 100, Hypoxia 560 ± 21
Procedure: as §1, §2, §3

VEGF [4] = test: Western blotting of VEGF expression in rat carvenosus strip, acute hypoxia; assay type: cell-based; parameters: unit not given here
eNOS [5] = test: Western blotting of eNOS expression in isolated rat pulmonary artery ring, short-term (acute) hypoxia or normoxia; assay type: cell-based; conditions: for eNOS expression, Pulmonary Artery Ring: acute hypoxia, Normoxia 100, Hypoxia 65.3 ± 7.8
Procedure: as §1, §2, §3

ROCK II [6] = test: Streptozotocin (STZ) induced RhoA/ROCKII activation of rat carvenosa tissue; assay type: in vivo; conditions: STZ model; 2.5 mg/kg; Control 100, STZ 142 ± 28
Procedure: (§4) Electrophoresis was performed using 10% SDS-polyacrylamide gel (2 hr, 100 V, 40 mA, […] protein per lane). Separated proteins were transferred to PVDF membranes treated with 5% fat-free milk powder to block the nonspecific IgGs (90 min, 100 V) and incubated for one hour with a specific protein antibody. The blot was then incubated with anti-mouse or anti-goat IgG linked to alkaline phosphatase (1:1000) for 1 hr. Immunoreactive bands were visualized using horseradish peroxidase-conjugated secondary antibodies and subsequent electrochemiluminescence (ECL) detection (GE Healthcare Bio-Sciences Corp., Piscataway, N.J., U.S.A.). Mouse or rabbit monoclonal antibody of eNOS (Upstate, N.Y., U.S.A.), sGCα (Sigma-Adrich, CA, U.S.A., sGCβ (Santa Cruz, Calif., U.S.A.), PDE-5A (BD Tansduction, San Jose, Calif., U.S.A.), PKG (Calbiochem, San Diego, Calif., U.S.A.) ROCKII (Upstate, N.Y., U.S.A.), RhoA (Santa Cruze, Calif., U.S.A.) and the loading control protein β-actin (Sigma-Adrich, MO, U.S.A.) were used in our Western blot analysis.

ROCK II [7] = test: Cigarette smoking-induced Rho/ROCK activation of rat pulmonary artery ring; assay type: in vivo; conditions: Intraperitoneal (100 mg/kg) 1 h prior to smoke exposure, Non-Smoking control 100, Smoking 530 ± 34
Procedure: Intraperitoneal SAA complex (100 mg/kg in 200 μl of the solution) or 200 μl of saline (control) were given to animals through intraperitoneal injection 1 h prior to smoke exposure.
as §2

eNOS [8] = test: Streptozotocin (STZ) induced eNOS down-regulation of rat carvenosa tissue; assay type: in vivo; conditions: STZ model; 2.5 mg/kg; Control 100, STZ 60 ± 7.3
Procedure: as §4

ROCK II [9] = test: Cigarette smoking-induced Rho/ROCK activation of rat pulmonary artery ring; assay type: in vivo; conditions: Nebulization (2.5 mM), Non-Smoking control 100, Smoking 540 ± 28
[10] = Normoxia 100, Hypoxia 62.4 ± 5.5
[11] = normoxia for 24 hrs, 10 μm, versus non-treated controls

CCCCCCCC/C=C\CCCCCCCC(=O)O.COc1ccccc1N1CCN(CCn2cnc3c2c(=O)n(C)c(=O)n3C)CC1 [Example 7, 7-[2-[4-(2-methoxyphenyl)piperazinyl]ethyl]-1,3-dimethylxanthine oleate complex]
eNOS expression, Carvenosus (eNOS [1]; [10]): 122 ± 4.9 | VEGF expression, Pulmonary Artery Ring (VEGF [2]; Normoxia 100, Hypoxia 175 ± 14): 91 ± 6.5 | ROCK II expression, Pulmonary Artery Ring (ROCK II [3]): 190 ± 7.7 | VEGF expression, Carvenosus (VEGF [4]; Normoxia 100, Hypoxia 170 ± 15): 84 ± 8.8 | eNOS expression, Pulmonary Artery Ring (eNOS [5]): 180 ± 7.6

Cn1c(=O)c2c(ncn2CCN2CCN(c3ccc([N+](=O)[O-])cc3)CC2)n(C)c1=O.O=C1O[C@H]([C@@H](O)CO)C(O)=C1O [Example 8, 7-[2-[4-(4-nitrophenyl)piperazinyl]ethyl]-1,3-dimethyl-xanthine ascorbate complex]
eNOS expression, Carvenosus (eNOS [1]; [10]): 45 ± 4.2 | VEGF expression, Pulmonary Artery Ring (VEGF [2]; Normoxia 100, Hypoxia 175 ± 14): 122 ± 16 | ROCK II expression, Pulmonary Artery Ring (ROCK II [3]): 150 ± 14 | VEGF expression, Carvenosus (VEGF [4]; Normoxia 100, Hypoxia 170 ± 15): 116 ± 12 | eNOS expression, Pulmonary Artery Ring (eNOS [5]): 80 ± 3.2

Cl.Cn1c(=O)c2c(ncn2CCN2CCN(c3ccccc3Cl)CC2)n(C)c1=O [Reagent 3, 7-[2-[4-(2-chlorophenyl)piperazinyl]ethyl]-1,3-dimethylxanthine HCl Complex]
eNOS expression, Carvenosus (eNOS [1]; [10]): 102 ± 5.8 | VEGF expression, Pulmonary Artery Ring (VEGF [2]; Normoxia 100, Hypoxia 175 ± 14): 108 ± 8.2 | ROCK II expression, Pulmonary Artery Ring (ROCK II [3]): 255 ± 4.6 | ROCK II, Carvanosus tissue (ROCK II [6]): 40 ± 5.2% | ROCK II of pulmonary artery ring (ROCK II [7]): 76 ± 5.3 | eNOS, Carvanosus tissue (eNOS [8]): 140 ± 5.3% | ROCK II of pulmonary artery ring (ROCK II [9]): 76 ± 6.2 | VEGF expression, Carvenosus (VEGF [4]; Normoxia 100, Hypoxia 170 ± 15): 110 ± 9.4 | eNOS expression, Pulmonary Artery Ring (eNOS [5]): 136 ± 4.6

CCCc1nn(C)c2c(=O)[nH]c(-c3cc(S(=O)(=O)N4CCN(C)CC4)ccc3OCC)nc12.O=C1OC(C(O)CO)C(O)=C1O [Reagent 1002, Sildenafil DL-ascorbate complex]
eNOS expression, Carvenosus (eNOS [1]; Normoxia 100, Hypoxia 62.4 ± 5.5, listed as 1002): 125 ± 5.4 | VEGF expression, Pulmonary Artery Ring (VEGF [2]; Normoxia 100, Hypoxia 175 ± 14, listed as 1002): 90 ± 5.8 | ROCK II expression, Pulmonary Artery Ring (ROCK II [3]; listed as 1002): 211 ± 12.5 | VEGF expression, Carvenosus (VEGF [4]; Normoxia 100, Hypoxia 170 ± 15, listed as 1002): 90 ± 7.9 | eNOS expression, Pulmonary Artery Ring (eNOS [5]; listed as 1002): 130 ± 6.4

CCCc1nn(C)c2c(=O)[nH]c(-c3cc(S(=O)(=O)N4CCN(C)CC4)ccc3OCC)nc12.Cl [Reagent 1003, Sildenafil HCl complex]
eNOS expression, Carvenosus (eNOS [1]; [10]): 110 ± 5.2 | VEGF expression, Pulmonary Artery Ring (VEGF [2]; Normoxia 100, Hypoxia 175 ± 14): 94 ± 9.8 | ROCK II of pulmonary artery ring (ROCK II [7]): 82 ± 7.6 | ROCK II of pulmonary artery ring (ROCK II [9]): 62 ± 4.8 | VEGF expression, Carvenosus (VEGF [4]; Normoxia 100, Hypoxia 170 ± 15): 105 ± 16 | eNOS expression, Pulmonary Artery Ring (eNOS [5]): 116 ± 7.2

CCCc1nn(C)c2c(=O)[nH]c(-c3cc(S(=O)(=O)N4CCN(C)CC4)ccc3OCC)nc12.O=C(O)C=CC(=O)O [Reagent 1008, Sildenafil maleate complex]
eNOS expression, Carvenosus (eNOS [1]; [10]): 45 ± 4.2 | ROCK II expression, Pulmonary Artery Ring (ROCK II [3]; listed as 1008): 150 ± 14 | VEGF expression, Carvenosus (VEGF [4]; Normoxia 100, Hypoxia 170 ± 15, listed as 1008): 116 ± 12

CCCc1nn(C)c2c(=O)[nH]c(-c3cc(S(=O)(=O)N4CCN(C)CC4)ccc3OCC)nc12.O=C(O)CC(O)C(=O)O [Reagent 1009, Sildenafil malate complex]
ROCK II expression, Pulmonary Artery Ring (ROCK II [3]): 120 ± 12 | VEGF expression, Carvenosus (VEGF [4]; Normoxia 100, Hypoxia 170 ± 15): 118 ± 18

CCCc1nn(C)c2c(=O)[nH]c(-c3cc(S(=O)(=O)N4CCN(C)CC4)ccc3OCC)nc12.O=C(O)C=CC(=O)O [Reagent 1010, Sildenafil fumarate complex]
ROCK II expression, Pulmonary Artery Ring (ROCK II [3]; listed as 1010): 125 ± 13 | VEGF expression, Carvenosus (VEGF [4]; Normoxia 100, Hypoxia 170 ± 15, listed as 1010): 117 ± 17

CC(O)C(=O)O.CCCc1nn(C)c2c(=O)[nH]c(-c3cc(S(=O)(=O)N4CCN(C)CC4)ccc3OCC)nc12 [Reagent 1011, Sildenafil lactate complex]
eNOS expression, Carvenosus (eNOS [1]; [10]): 46 ± 4.7 | VEGF expression, Pulmonary Artery Ring (VEGF [2]; Normoxia 100, Hypoxia 175 ± 14): 133 ± 17 | ROCK II expression, Pulmonary Artery Ring (ROCK II [3]): 310 ± 21 | VEGF expression, Carvenosus (VEGF [4]; Normoxia 100, Hypoxia 170 ± 15): 118 ± 16 | eNOS expression, Pulmonary Artery Ring (eNOS [5]): 75 ± 13

CC(=O)O.CCCc1nn(C)c2c(=O)[nH]c(-c3cc(S(=O)(=O)N4CCN(C)CC4)ccc3OCC)nc12 [Reagent 1012, Sildenafil acetate complex]
ROCK II expression, Pulmonary Artery Ring (ROCK II [3]): 270 ± 27 | eNOS expression, Pulmonary Artery Ring (eNOS [5]): 70 ± 13

CCCCCCCCC=CCCCCCCCC(=O)O.CCCc1nn(C)c2c(=O)[nH]c(-c3cc(S(=O)(=O)N4CCN(C)CC4)ccc3OCC)nc12 [Reagent 1013, Sildenafil oleate complex]
eNOS expression, Pulmonary Artery Ring (eNOS [5]): 104 ± 18

CCCc1nn(C)c2c(=O)[nH]c(-c3cc(S(=O)(=O)N4CCN(C)CC4)ccc3OCC)nc12.O=C(O)C(=O)O [Reagent 1015, Sildenafil oxalate complex]
eNOS expression, Carvenosus (eNOS [1]; [10]): 65 ± 4.7 | ROCK II expression, Pulmonary Artery Ring (ROCK II [3]): 395 ± 27 | eNOS expression, Pulmonary Artery Ring (eNOS [5]): 68 ± 15

CCCc1nn(C)c2c(=O)[nH]c(-c3cc(S(=O)(=O)N4CCN(C)CC4)ccc3OCC)nc12.O=C(O)c1ccccc1O [Reagent 1016, Sildenafil-Salicylate complex]
eNOS expression, Carvenosus (eNOS [1]; [10]): 110 ± 4.7 | VEGF expression, Pulmonary Artery Ring (VEGF [2]; Normoxia 100, Hypoxia 175 ± 14): 90 ± 5.2 | ROCK II expression, Pulmonary Artery Ring (ROCK II [3]): 178 ± 19 | VEGF expression, Carvenosus (VEGF [4]; Normoxia 100, Hypoxia 170 ± 15): 90 ± 7.5 | eNOS expression, Pulmonary Artery Ring (eNOS [5]): 165 ± 16

C[C@@H](N)[C@H]1CC[C@H](C(=O)Nc2ccncc2)CC1 [Reagent Y27632, Y27632, reference compound]
expression of ROCK II in isolated hypoxic pulmonary artery (ROCK II [3]; hypoxia for 24 hrs, versus control level in normoxia, hypoxia 180±10.2%): 150±13.1% | Expression of ROCK II in isolated pulmonary artery ring (ROCK II [3]; [11]): 67.5±14.8% | eNOS in isolated hypoxic pulmonary artery (eNOS [5]; hypoxia for 24 hrs, versus control level in normoxia, hypoxia 60±8.3%): 50±4.7% | expression of eNOS in isolated pulmonary artery ring (eNOS [5]; [11]): 114.1±12.3%

Sildenafil Arginate complex [Reagent 1017]
eNOS expression, Carvenosus (eNOS [1]; [10]): 124 ± 11 | VEGF expression, Pulmonary Artery Ring (VEGF [2]; Normoxia 100, Hypoxia 175 ± 14): 90 ± 6.4 | ROCK II expression, Pulmonary Artery Ring (ROCK II [3]): 182 ± 21 | VEGF expression, Carvenosus (VEGF [4]; Normoxia 100, Hypoxia 170 ± 15): 90 ± 8.2 | eNOS expression, Pulmonary Artery Ring (eNOS [5]): 180 ± 12
